One test has as its target T1, mTOR (Homo sapiens, UniProt P42345).
T1 construct: purchased Invitrogen Corporation (Carlsbad/Calif., USA) PV4753
Description: Biochemical assay for m-TOR by TR-FRET. The settings on record: read-out: EPK_mTOR/IC50. Here is the method:
Biochemical Assay for m-TOR by TR-FRET.
Assay components are purchased from Invitrogen Corporation (Carlsbad/Calif., USA): GFP-4EBP1 (Cat. No. PV4759), Tb3+-α-p4EBP1 [pThr46] Antibody (Cat. No. PV4757), proprietary TR-FRET dilution buffer (Cat. No. PV3574), mTOR protein (Cat. No. PV4753).
50 nL of compound dilutions (final concentration of 10, 3.0, 1.0, 0.3, 0.1, 0.03, 0.01 and 0.003 μM) are dispensed onto black 384-well low volume non-binding polystyrene (Cat. No. NBS#3676, Corning, Lowell/Mass., USA). Then 5 μL of ATP (8 μM final concentration) and GFP-4EBP1 (400 nM final concentration) with 5 μL mTOR proteins (0.5 nM final concentration) are incubated at rt. The standard reaction buffer for the TR-FRET mTOR assay contained 50 mM HEPES pH 7.5, 10 mM MnCl2, 50 mM NaCl, 1 mM EGTA, 1 mM DTT. Reactions were stopped with 10 μL of a mixture of EDTA containing the Tb3+-α-p4EBP1[pT46] detection Ab (0.5 nM) in TR-FRET dilution buffer (proprietary to IVG). Plates are read 15 mins later in a Synergy2 reader using an integration time of 0.2 seconds and a delay of 0.1 seconds. Control for the 100% inhibition of the kinase reaction is performed by replacing the mTOR kinase by the standard reaction buffer. The control for the 0% inhibition is given by the solvent vehicle of the compounds (90% DMSO in H2O). A standard compound is used as a reference compound and included in all assay plates in the form of 16 dilution points in duplicate.
Background: TR-FRET usually uses a lanthanide donor and a delayed reading to cut background.

Another test concerns the target T2, PI3K beta (Homo sapiens, UniProt P42338).
T2 construct: for the full-length p110-b subunit are generated and fused by overlapping PCR; His tag (C); made in house; host or cells: baculovirus BV949; Tn5 (Trichoplusia ni) or TiniPro insect cells
Description: PI3K beta kinase assay (Kinase-Glo luminescence). The settings on record: read-out: EPK_PI3Kbeta/IC50. Format: biochemical. Here is the method:
(§1) In a more preferred assay, the kinase reaction is performed in a final volume of 10 μL per well of a low volume non binding CORNING, 384 well black plate (Cat. No. #3676). The final concentrations of ATP and phosphatidyl inositol (PI) in the assay are 1 μM and 10 μg/mL respectively. The reaction is started by the addition of ATP.
(§2) The components of the assay are added per well as follows:
(§3) 50 nL test compounds in 90% DMSO per well, in columns 1-20, 8 concentrations (⅓ and 1/3.33 serial dilution step) in single. • Low control: […] of 90% DMSO in half the wells of columns 23-24 (0.45% in final). • High control: 50 nL of reference compound (e.g. compound of Example 7 in WO 2006/122806) in the other half of columns 23-24 (2.5 μM in final). • Standard: 50 nL of reference compound as just mentioned diluted as the test compounds in columns 21-22 • 20 mL ‘buffer’ are prepared per assay: • 200 μL of 1M TRIS HCl pH7.5 (10 mM in final) • 60 μL of 1M MgCl2 (3 mM in final) • 500 μL of 2M NaCl (50 mM in final) • 100 μL of 10% CHAPS (0.05% in final) • 200 μL of 100 mM DTT (1 mM in final) • 18.94 mL of nanopure water • 10 mL ‘PI’ are prepared per assay: • 200 μL of 1 mg/ml L-alpha-Phosphatidylinositol (Liver Bovine, Avanti Polar Lipids Cat. No. 840042C MW=909.12) prepared in 3% OctylGlucoside (10 μg/ml in final) • 9.8 mL of ‘buffer’ • 10 mL ‘ATP’ are prepared per assay: • 6.7 μL of 3 mM stock of ATP giving a final concentration of 1 μM per well • 10 mL of ‘buffer’ • 2.5 mL of each PI3K construct are prepared per assay in ‘PI’ with the following final concentration: • 10 nM PI3K alfa EMV B1075 • 25 nM beta EMV BV949 • 10 nM delta EMV BV1060 • 150 nM gamma EMV BV950 • 5 μL of ‘PI/PI3K’ are added per well. • 5 μl ‘ATP’ are added per well to start the reaction. • The plates are then incubated at room temperature for 60 minutes (alfa, beta, delta) or 120 minutes (gamma). • The reaction is terminated by the addition of 10 μL Kinase-Glo (Promega Cat. No. #6714). • The assay plates are read after 10 minutes in Synergy 2 reader (BioTek, Vermont USA) with an integration time of 100 milliseconds and sensitivity set to 191. • Output: The High control is around 60′000 counts and the Low control is 30′000 or lower • This luminescence assay gives a useful Z′ ratio between 0.4 and 0.7
PI3Kβ BV-949 p85(iSH2)-Gly linker-r 110b(full-length)-C-term His Tag
PI3K beta is purified in two chromatographic steps: immobilized metal affinity chromatography (IMAC) on a Ni Sepharose resin (GE Healthcare) and gel filtration (GFC) utilizing a Superdex 200 26/60 column (GE Healthcare). All buffers are chilled to 4° C. and lysis is performed chilled on ice. Column fractionation is performed rapidly at room temperature.
(§4) IC50 is determined by a four parameter curve fitting routine that comes along with “excel fit”. A 4 Parameter logistic equation is used to calculate IC50 values (IDBS XLfit) of the percentage inhibition of each compound at 8 concentrations (usually 10, 3.0, 1.0, 0.3, 0.1, 0.030, 0.010 and 0.003 μM). Alternatively, IC50 values are calculated using idbsXLfit model 204, which is a 4 parameter logistic model.

Another test deals with T3, PI3K alfa (Homo sapiens, UniProt P42336).
T3 construct: His tag (C); made in house; host or cells: baculovirus BV1075; Tn5 (Trichoplusia ni) or TiniPro insect cells
T3 sequence (P42336 with tags, fused parts or gaps limits assumed): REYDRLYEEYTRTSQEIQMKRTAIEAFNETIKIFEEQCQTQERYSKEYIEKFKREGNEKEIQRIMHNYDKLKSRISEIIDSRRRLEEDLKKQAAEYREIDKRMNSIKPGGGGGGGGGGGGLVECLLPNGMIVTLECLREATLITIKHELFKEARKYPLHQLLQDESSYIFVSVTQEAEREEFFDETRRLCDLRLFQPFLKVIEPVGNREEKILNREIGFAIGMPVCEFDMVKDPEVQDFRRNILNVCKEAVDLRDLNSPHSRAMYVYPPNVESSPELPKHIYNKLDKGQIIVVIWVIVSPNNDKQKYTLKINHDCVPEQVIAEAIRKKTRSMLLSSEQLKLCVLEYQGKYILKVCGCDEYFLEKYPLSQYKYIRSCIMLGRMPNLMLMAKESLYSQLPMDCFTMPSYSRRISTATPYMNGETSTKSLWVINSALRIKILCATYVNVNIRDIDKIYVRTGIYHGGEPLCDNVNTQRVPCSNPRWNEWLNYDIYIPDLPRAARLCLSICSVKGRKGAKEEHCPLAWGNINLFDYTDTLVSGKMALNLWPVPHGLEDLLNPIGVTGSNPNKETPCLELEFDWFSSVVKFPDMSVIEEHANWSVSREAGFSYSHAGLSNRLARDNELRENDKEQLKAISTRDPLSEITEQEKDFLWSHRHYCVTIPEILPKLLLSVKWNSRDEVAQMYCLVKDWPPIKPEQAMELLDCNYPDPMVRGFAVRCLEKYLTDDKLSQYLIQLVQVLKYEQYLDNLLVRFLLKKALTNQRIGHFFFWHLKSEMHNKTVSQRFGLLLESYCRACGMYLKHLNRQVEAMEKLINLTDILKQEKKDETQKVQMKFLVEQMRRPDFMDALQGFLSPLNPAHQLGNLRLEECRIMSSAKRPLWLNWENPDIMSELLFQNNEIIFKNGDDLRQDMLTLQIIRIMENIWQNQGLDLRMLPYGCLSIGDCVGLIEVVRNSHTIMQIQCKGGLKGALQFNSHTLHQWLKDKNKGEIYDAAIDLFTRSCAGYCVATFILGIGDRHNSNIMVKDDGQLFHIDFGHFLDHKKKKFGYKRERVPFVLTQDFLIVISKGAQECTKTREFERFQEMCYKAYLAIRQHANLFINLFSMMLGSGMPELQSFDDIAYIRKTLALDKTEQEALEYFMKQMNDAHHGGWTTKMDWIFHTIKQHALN
Briefly: PI3K alpha kinase assay (Kinase-Glo luminescence). As to conditions: read-out: EPK_PI3Kalfa/IC50. It is filed as biochemical. Here is the method: as §1, §2, §3
Two different constructs, BV 1052 and BV 1075, are used to generate the PI3 Kinase α proteins for compound screening.
PI3K alpha is purified in three chromatographic steps: immobilized metal affinity chromatography on a Ni Sepharose resin (GE Healthcare, belonging to General Electric Company, Fairfield, Conn., USA), gel filtration utilizing a Superdex 200 26/60 column (GE Healthcare), and finally a cation exchange step on a SP-XL column (GE Healthcare). All buffers are chilled to 4° C. and lysis is performed chilled on ice. Column fractionation is performed rapidly at room temperature.
as §4
(Kinase-Glo measures the ATP left after a reaction by luminescence.)

The target of the next test is T4, PI3K delta (Homo sapiens, UniProt O00329).
T4 construct: for the full-length p110-d subunit are generated and fused by overlapping PCR; His tag (C); made in house; host or cells: baculovirus BV1060; Tn5 (Trichoplusia ni) or TiniPro insect cells
T4 sequence (O00329 with tags, fused parts or gaps limits assumed): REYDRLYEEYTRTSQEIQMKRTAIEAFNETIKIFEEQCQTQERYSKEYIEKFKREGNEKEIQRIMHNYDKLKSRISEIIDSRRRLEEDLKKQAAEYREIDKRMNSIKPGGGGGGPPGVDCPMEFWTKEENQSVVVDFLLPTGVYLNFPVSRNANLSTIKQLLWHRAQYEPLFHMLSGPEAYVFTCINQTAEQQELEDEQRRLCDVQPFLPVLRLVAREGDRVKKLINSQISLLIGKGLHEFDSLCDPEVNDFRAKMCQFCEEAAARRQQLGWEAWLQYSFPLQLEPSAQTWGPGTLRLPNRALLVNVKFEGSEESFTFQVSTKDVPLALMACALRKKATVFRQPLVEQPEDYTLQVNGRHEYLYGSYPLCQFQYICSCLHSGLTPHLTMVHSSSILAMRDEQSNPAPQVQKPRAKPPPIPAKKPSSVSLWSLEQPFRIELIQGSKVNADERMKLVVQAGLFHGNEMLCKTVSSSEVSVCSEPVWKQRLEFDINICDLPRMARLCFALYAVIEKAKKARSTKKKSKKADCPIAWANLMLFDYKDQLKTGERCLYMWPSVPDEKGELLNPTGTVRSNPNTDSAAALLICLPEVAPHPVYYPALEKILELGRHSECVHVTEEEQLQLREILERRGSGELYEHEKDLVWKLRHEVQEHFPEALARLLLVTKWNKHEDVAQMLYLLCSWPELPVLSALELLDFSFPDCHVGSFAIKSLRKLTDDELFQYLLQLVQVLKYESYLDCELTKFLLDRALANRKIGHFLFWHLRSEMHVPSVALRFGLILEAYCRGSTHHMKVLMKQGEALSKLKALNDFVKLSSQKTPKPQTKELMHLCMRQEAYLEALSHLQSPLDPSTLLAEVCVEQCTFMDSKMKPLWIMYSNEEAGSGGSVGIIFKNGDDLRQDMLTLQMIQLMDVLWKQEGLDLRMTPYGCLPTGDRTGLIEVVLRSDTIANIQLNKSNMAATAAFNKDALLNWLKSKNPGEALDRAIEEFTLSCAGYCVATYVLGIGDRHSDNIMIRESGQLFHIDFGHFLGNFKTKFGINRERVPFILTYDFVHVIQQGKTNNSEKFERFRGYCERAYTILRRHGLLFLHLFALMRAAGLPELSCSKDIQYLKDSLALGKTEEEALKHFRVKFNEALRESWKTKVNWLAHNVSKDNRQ
Description: PI3K delta kinase assay (Kinase-Glo luminescence). Format: biochemical. The settings on record: read-out: EPK_PI3Kdelta/IC50. Here is the method:
as §1, §2, §3
PI3Kδ BV-1060 p85(iSH2)-Gly Linker-p110d(Full-Length)-C-Term His Tag
PI3K delta is purified in three chromatographic steps: immobilized metal affinity chromatography on a Ni Sepharose resin (GE Healthcare), gel filtration utilizing a Superdex 200 26/60 column (GE Healthcare), and finally a anion exchange step on a Q-HP column (GE Healthcare). All buffers are chilled to 4° C. and lysis is performed chilled on ice. Column fractionation is performed rapidly at room temperature. Typically frozen insect cells are lysed in a hypertonic lysis buffer and applied to a prepared IMAC column. The resin is washed with 3-5 column volumes of lysis buffer, followed by 3-5 column volumes wash buffer containing 45 mM imidazole, and the target protein is then eluted with a buffer containing 250 mM imidazole. Fractions are analyzed by Coomassie stained SDS-PAGE gels, and fractions containing the target protein are pooled and applied to a prepared GFC column. Fractions from the GFC column are analyzed by Coomassie stained SDS-PAGE gels, and fractions containing the target protein are pooled. The pool from the GFC column is diluted into a low salt buffer and applied to a prepared Q-HP column. The column is washed with low salt buffer until a stable A280 baseline absorbance is achieved, and eluted using a 20 column volume gradient from 0 mM NaCl to 500 mM NaCl. Again, fractions from the Q-HP column are analyzed by Coomassie stained SDS-PAGE gels, and fractions containing the target protein are pooled. The final pool is dialyzed into a storage buffer containing 50% glycerol and stored at −20° C. The final pool is assayed for activity in the phosphoinostitol kinase assay. […]

T1 sequence (P42345 1360-2549 limits assumed): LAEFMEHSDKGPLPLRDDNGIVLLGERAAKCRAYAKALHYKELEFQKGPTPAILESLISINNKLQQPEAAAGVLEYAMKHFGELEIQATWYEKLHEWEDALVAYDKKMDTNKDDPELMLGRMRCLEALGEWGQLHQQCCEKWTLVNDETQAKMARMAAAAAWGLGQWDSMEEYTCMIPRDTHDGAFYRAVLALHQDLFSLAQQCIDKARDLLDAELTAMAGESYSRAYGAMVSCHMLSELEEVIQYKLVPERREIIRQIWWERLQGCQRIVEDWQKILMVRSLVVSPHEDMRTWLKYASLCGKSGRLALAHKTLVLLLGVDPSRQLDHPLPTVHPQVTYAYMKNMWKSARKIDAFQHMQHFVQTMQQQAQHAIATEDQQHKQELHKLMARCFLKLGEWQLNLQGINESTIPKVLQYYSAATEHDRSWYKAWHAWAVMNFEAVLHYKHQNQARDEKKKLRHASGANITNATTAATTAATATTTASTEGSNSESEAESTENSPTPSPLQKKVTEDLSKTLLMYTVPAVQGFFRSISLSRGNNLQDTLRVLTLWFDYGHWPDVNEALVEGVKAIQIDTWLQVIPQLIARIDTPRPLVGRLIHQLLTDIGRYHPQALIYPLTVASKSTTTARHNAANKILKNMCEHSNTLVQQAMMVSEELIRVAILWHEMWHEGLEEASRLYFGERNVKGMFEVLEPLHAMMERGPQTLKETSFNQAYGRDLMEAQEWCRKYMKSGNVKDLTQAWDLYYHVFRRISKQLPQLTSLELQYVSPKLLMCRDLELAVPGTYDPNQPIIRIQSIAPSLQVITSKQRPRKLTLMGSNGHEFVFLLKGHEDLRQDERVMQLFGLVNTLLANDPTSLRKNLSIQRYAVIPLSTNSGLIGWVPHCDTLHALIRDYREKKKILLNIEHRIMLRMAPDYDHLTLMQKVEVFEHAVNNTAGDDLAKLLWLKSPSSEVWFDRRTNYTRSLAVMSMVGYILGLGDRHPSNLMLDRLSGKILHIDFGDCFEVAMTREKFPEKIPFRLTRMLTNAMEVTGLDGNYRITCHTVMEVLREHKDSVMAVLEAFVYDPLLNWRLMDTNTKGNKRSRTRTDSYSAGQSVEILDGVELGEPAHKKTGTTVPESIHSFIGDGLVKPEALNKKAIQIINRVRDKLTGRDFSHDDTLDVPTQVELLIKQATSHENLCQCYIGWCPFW
T2 sequence (P42338 with tags, fused parts or gaps limits assumed): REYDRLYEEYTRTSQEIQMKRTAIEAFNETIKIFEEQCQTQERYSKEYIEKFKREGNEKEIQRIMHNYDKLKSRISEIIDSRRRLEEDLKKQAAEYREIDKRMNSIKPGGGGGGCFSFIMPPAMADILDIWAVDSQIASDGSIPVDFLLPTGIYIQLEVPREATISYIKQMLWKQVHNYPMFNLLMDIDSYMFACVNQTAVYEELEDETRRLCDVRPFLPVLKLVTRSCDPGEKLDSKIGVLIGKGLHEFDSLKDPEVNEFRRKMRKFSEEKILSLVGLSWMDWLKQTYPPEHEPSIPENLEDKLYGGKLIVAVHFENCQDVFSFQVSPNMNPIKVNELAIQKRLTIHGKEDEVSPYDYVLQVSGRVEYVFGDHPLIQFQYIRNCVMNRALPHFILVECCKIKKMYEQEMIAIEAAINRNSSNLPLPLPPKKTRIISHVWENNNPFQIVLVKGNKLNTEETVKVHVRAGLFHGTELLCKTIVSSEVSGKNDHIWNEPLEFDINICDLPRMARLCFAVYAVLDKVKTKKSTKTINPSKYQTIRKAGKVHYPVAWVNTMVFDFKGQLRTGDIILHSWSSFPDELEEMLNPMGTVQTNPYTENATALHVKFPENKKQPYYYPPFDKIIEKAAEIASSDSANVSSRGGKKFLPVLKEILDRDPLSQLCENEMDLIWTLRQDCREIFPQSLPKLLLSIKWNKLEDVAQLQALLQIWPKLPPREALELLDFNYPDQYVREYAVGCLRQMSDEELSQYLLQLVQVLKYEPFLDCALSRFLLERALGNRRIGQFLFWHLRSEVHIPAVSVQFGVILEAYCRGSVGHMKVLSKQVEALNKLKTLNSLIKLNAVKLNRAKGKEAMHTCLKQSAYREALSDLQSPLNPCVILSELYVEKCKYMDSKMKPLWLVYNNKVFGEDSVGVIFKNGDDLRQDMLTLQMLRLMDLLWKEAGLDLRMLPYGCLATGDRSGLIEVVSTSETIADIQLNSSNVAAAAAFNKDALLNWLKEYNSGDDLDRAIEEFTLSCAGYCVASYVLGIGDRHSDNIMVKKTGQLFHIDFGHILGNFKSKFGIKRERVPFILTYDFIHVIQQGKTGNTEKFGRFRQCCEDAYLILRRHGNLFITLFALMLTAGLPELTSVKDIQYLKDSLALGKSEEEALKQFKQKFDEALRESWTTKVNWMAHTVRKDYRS

For `CCNc1ncc(-c2ccc3ncc4c(c3c2)n(-c2ccc(F)nc2C)c(=O)n4C)cn1` [Example 7.18, 8-(2-Ethylamino-pyrimidin-5-yl)-1-(6-fluoro-2-methyl-pyridin-3-yl)-3-methyl-1,3-dihydro-imidazo[4,5-c]quinolin-2-one], the IC50 on mTOR was 36 nM; at PI3K beta, 321 nM; on PI3K alfa it was 65 nM; at PI3K delta it was 28 nM.

Turning to `CCNc1ncc(-c2ccc3ncc4c(c3c2)n(-c2ccc(N3CC(O)C3)nc2C)c(=O)n4C)cn1` [Example 29.7, 8-(2-Ethylamino-pyrimidin-5-yl)-1-[6-(3-hydroxy-azetidin-1-yl)-2-methyl-pyridin-3-yl]-3-methyl-1,3-dihydro-imidazo[4,5-c]quinolin-2-one], the IC50 stood at 8 nM on mTOR, 339 nM on PI3K beta, 49 nM on PI3K alfa and 24 nM on PI3K delta.

As to `CNc1ncc(-c2ccc3ncc4c(c3c2)n(-c2ccc(C(C)(C)O)nc2C)c(=O)n4C)cn1` [Example 31.2, 1-[6-(1-Hydroxy-1-methyl-ethyl)-2-methyl-pyridin-3-yl]-3-methyl-8-(2-methylamino-pyrimidin-5-yl)-1,3-dihydro-imidazo[4,5-c]quinolin-2-one], the IC50 at mTOR came out at 6 nM; at PI3K beta, 105 nM; on PI3K alfa it was 26 nM; on PI3K delta it was 11 nM.

Consider `CCNc1ncc(-c2ccc3ncc4c(c3c2)n(-c2ccc(N3CC[C@H](O)C3)nc2C)c(=O)n4C)c(OC)n1` [Example 32.9, 8-(2-Ethylamino-4-methoxy-pyrimidin-5-yl)-1-[6-((S)-3-hydroxy-pyrrolidin-1-yl)-2-methyl-pyridin-3-yl]-3-methyl-1,3-dihydro-imidazo[4,5-c]quinolin-2-one], for which the IC50 at mTOR was 21 nM; on PI3K beta it was 385 nM; on PI3K alfa, 27 nM; on PI3K delta it was 21 nM.

With `CCNc1ncc(-c2ccc3ncc4c(c3c2)n(-c2ccc(N3CC[C@H](O)C3)nc2C)c(=O)n4C)cn1` [Example 32.10, 8-(2-Ethylamino-pyrimidin-5-yl)-1-[6-((S)-3-hydroxy-pyrrolidin-1-yl)-2-methyl-pyridin-3-yl]-3-methyl-1,3-dihydro-imidazo[4,5-c]quinolin-2-one], the IC50 came to 15 nM at mTOR, 401 nM at PI3K beta, 44 nM at PI3K alfa and 20 nM at PI3K delta.

In the case of `COCc1cc(-c2ccc3ncc4c(c3c2)n(-c2ccc(C(F)(F)F)nc2C)c(=O)n4C)cnc1N` [Example 33.3, 8-(6-Amino-5-methoxymethyl-pyridin-3-yl)-3-methyl-1-(2-methyl-6-trifluoromethyl-pyridin-3-yl)-1,3-dihydro-imidazo[4,5-c]quinolin-2-one], the IC50 on mTOR turned out to be 60 nM; on PI3K beta, 22 nM; on PI3K alfa, 12 nM; on PI3K delta, 7 nM.

As for `Cc1nc(C(F)(F)F)ccc1-n1c(=O)n(C)c2cnc3ccc(-c4cnc(N)c(CO)c4)cc3c21` [Example 33.5, 8-(6-Amino-5-hydroxymethyl-pyridin-3-yl)-3-methyl-1-(2-methyl-6-trifluoromethyl-pyridin-3-yl)-1,3-dihydro-imidazo[4,5-c]quinolin-2-one], the IC50 was found to be 36 nM on mTOR, 56 nM at PI3K beta, 41 nM on PI3K alfa and 25 nM on PI3K delta.

As for `CNc1ncc(-c2ccc3ncc4c(c3c2)n(-c2ccc(C(F)(F)F)nc2C)c(=O)n4C)cc1COC` [Example 33.6, 8-(5-Methoxymethyl-6-methylamino-pyridin-3-yl)-3-methyl-1-(2-methyl-6-trifluoromethyl-pyridin-3-yl)-1,3-dihydro-imidazo[4,5-c]quinolin-2-one], the IC50 at mTOR came out at 70 nM; at PI3K beta, 62 nM; on PI3K alfa, 27 nM; on PI3K delta, 10 nM.
